The values that follow come from patent publication US10100064B2, “Purine inhibitors of human phosphatidylinositol 3-kinase delta” (Merck Sharp & Dohme Corp., priority 2014, dated 2018).

The target of one assay is T1, PI3Kdelta (Homo sapiens, UniProt O00329).
T1 construct: purchased Upstate; Millipore 14-604
The assay can be described thus: HTRF PI3K biochemical assay, delta isoform. The note with it: 0.3 nM enzyme, 100 uM ATP, 5 uM PIP2, form screened (Neutral or TFA salt) given per compound. In short, it runs like this: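 PI3Kδ at 0.3 nM with 100 uM ATP and 5 uM PIP2, 10-point 3-fold dilutions, 15 min enzyme–compound pre-incubation, then 1 h reaction at room temperature. PIP3 formation detected by HTRF displacement of biotin-PIP3 from GST-GRP1-PH (665/620 nm ratio). IC50 corrected using a PIP3 standard curve.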
Background: In TR-FRET formats the signal depends on donor and acceptor labels being close together.

The target of a further assay is T2, PI3Kalpha (Homo sapiens, UniProt P42336).
T2 construct: purchased Upstate; Millipore 14-602
The assay can be described thus: HTRF PI3K biochemical assay, alpha isoform (selectivity versus delta). The note with it: relative ratio PI3K-alpha IC50 value / PI3K-delta IC50 value. The gist of the method: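 Recombinant PI3Kα (0.5 nM) pre-incubated 15 min with compound, then reacted 1 h at room temperature with 5 μM PIP2 and 100 μM ATP. After EDTA stop, PIP3 measured by HTRF displacement of biotin-PIP3 from GST-GRP1 PH domain (665/620 nm). 10-point dose response; IC50 corrected using a PIP3 standard curve.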

One may read the IC50 as the concentration that inhibits the measured activity by half.

T1 sequence (O00329 whole entry): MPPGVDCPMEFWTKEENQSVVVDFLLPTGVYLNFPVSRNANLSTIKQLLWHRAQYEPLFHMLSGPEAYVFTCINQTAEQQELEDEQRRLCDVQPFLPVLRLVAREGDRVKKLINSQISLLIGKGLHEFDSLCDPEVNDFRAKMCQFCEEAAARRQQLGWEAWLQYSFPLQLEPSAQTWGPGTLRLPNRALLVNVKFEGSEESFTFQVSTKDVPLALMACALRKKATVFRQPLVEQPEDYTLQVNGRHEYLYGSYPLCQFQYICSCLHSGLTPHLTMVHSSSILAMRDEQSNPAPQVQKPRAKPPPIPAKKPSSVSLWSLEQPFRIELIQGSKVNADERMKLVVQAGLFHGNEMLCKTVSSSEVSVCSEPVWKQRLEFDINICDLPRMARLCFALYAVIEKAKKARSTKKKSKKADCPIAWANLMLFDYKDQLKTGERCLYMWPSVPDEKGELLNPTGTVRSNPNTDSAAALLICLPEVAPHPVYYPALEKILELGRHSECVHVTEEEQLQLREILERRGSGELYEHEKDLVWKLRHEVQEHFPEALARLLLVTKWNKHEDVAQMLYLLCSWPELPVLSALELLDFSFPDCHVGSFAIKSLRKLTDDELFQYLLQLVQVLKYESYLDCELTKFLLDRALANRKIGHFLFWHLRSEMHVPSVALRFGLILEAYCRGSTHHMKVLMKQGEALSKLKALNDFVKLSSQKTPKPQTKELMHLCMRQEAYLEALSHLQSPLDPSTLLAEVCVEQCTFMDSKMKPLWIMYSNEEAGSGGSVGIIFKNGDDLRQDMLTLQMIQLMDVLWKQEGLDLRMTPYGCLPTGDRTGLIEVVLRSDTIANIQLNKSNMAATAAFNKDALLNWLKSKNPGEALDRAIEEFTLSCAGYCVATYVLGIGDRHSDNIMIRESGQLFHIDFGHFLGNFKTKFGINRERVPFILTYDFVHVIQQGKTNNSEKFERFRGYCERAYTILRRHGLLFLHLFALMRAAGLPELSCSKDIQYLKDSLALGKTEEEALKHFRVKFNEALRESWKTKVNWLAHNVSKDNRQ
T1 sequence (P27986 whole entry partner): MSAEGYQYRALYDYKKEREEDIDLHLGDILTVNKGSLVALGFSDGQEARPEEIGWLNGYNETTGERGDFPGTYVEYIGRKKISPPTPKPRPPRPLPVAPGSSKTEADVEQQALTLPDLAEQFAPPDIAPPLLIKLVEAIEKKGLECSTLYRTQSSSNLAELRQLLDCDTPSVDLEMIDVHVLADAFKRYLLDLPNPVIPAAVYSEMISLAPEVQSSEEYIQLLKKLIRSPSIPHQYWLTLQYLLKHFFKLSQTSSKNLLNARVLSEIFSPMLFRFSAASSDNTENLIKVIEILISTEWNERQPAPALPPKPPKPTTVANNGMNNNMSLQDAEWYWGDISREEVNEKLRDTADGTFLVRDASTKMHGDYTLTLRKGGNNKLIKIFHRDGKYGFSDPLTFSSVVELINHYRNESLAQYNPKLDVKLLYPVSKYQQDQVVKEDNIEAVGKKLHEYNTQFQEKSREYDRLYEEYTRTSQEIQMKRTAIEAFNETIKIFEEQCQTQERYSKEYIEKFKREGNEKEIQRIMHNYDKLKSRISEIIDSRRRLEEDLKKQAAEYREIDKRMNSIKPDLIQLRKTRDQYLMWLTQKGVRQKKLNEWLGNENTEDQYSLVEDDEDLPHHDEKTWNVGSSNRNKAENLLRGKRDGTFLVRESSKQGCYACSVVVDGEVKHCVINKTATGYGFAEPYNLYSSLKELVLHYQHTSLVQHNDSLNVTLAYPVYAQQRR
T2 sequence (P42336 whole entry): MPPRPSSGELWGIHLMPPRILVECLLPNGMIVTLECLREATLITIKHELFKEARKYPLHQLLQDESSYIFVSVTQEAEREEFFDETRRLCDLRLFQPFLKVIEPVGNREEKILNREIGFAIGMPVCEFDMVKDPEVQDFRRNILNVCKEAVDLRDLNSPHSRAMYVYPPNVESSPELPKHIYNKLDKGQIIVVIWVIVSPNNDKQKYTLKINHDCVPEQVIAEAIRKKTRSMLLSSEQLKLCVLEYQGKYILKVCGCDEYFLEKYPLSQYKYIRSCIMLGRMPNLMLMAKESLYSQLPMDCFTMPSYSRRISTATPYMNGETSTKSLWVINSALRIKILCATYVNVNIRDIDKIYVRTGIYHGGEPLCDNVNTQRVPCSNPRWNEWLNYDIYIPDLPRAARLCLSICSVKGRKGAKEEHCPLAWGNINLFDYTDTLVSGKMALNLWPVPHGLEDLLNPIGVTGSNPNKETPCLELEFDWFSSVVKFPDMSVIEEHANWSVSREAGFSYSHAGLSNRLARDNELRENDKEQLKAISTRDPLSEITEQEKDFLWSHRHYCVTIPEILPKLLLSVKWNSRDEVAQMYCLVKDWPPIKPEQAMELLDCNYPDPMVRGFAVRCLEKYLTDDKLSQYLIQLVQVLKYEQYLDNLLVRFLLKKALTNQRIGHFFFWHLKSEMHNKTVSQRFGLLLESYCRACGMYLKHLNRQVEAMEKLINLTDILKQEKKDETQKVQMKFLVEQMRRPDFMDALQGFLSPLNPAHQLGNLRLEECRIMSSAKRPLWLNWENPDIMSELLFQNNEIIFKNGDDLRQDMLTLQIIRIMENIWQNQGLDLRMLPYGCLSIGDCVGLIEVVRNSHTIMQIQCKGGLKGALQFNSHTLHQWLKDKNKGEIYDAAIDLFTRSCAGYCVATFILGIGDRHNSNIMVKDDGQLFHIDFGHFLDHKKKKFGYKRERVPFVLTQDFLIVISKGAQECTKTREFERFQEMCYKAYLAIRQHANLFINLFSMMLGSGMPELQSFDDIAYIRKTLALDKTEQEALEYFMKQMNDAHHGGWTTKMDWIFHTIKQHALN
T2 sequence (P27986 whole entry partner): as the sequence (P27986 whole entry partner) above

Turning to `CCn1c(-c2cnc(C)nc2)nc2c(OC3CCc4nnc(C5CC5)n4C3)ncnc21` (single isomer, unassigned) [Compound 1-32, (S or R)-6-{[3-cyclopropyl-5,6,7,8-tetrahydro[1,2,4]triazolo[4,3-a]pyridin-6-yl]oxy}-9-ethyl-8-(2-methylpyrimidin-5-yl)-9H-purine], at PI3Kdelta, the IC50 amounted to 4.4 nM. Further, on PI3Kalpha, the “Selectivity versus PI3Kalpha” value is over 10.
In the same order, the values of `CCn1c(-c2cnc(C)nc2)nc2c(OC3CCc4nnc(C(C)C)n4C3)ncnc21` (single isomer, unassigned) [Compound 1-33, (S or R)-9-ethyl-6-{[3-(1-methylethyl)-5,6,7,8-tetrahydro[1,2,4]triazolo[4,3-a]pyridin-6-yl]oxy}-8-(2-methylpyrimidin-5-yl)-9H-purine] are 35 nM and over 10.
Consider `CCn1c(-c2cnc(C)nc2)nc2c(OC3CCc4nnc(C(C)C)n4C3)ncnc21` (single isomer, unassigned) [Compound 1-34, (S or R)-9-ethyl-6-{[3-(1-methylethyl)-5,6,7,8-tetrahydro[1,2,4]triazolo[4,3-a]pyridin-6-yl]oxy}-8-(2-methylpyrimidin-5-yl)-9H-purine], for which the 50% inhibitory concentration (IC50) at PI3Kdelta came out at 4.1 nM. At PI3Kalpha, the “Selectivity versus PI3Kalpha” value is listed as over 10.
For the compound `CCn1c(-c2cnc(C)nc2)nc2c(OC3CCc4nnc(C5CCC5)n4C3)ncnc21` (single isomer, unassigned) [Compound 1-35, (S or R)-6-{[3-cyclobutyl-5,6,7,8-tetrahydro[1,2,4]triazolo[4,3-a]pyridin-6-yl]oxy}-9-ethyl-8-(2-methylpyrimidin-5-yl)-9H-purine], the IC50 on PI3Kdelta turned out to be 19 nM. Also, the “Selectivity versus PI3Kalpha” value on PI3Kalpha is given as over 10.
On to `CCn1c(-c2cnc(C)nc2)nc2c(OC3CCc4nnc(C5CCC5)n4C3)ncnc21` (single isomer, unassigned) [Compound 1-36, (S or R)-6-{[3-cyclobutyl-5,6,7,8-tetrahydro[1,2,4]triazolo[4,3-a]pyridin-6-yl]oxy}-9-ethyl-8-(2-methylpyrimidin-5-yl)-9H-purine], for which, on PI3Kdelta, the IC50 turned out to be 1.1 nM. Besides, the “Selectivity versus PI3Kalpha” value on PI3Kalpha is over 10.
With `CCn1c(-c2cnc(C)nc2)nc2c(NC3CCc4[nH]nc(C5CC5)c4C3)ncnc21` (single isomer, unassigned) [Compound 2-2, (S or R)-N-[3-cyclopropyl-4,5,6,7-tetrahydro-1H-indazol-5-yl]-9-ethyl-8-(2-methylpyrimidin-5-yl)-9H-purin-6-amine], on PI3Kdelta, the IC50 was found to be 2.9 nM. The “Selectivity versus PI3Kalpha” value at PI3Kalpha is recorded as over 10.
The like results for `CCn1c(-c2cnc(C)nc2)nc2c(NC3CCc4[nH]nc(C(C)C)c4C3)ncnc21` (single isomer, unassigned) [Compound 2-4, (S or R)-9-ethyl-N-[3-(1-methylethyl)-4,5,6,7-tetrahydro-1H-indazol-5-yl]-8-(2-methylpyrimidin-5-yl)-9H-purin-6-amine] were, in that order, 1.8 nM and over 10.
As for `CCn1c(-c2cnc(C)nc2)nc2c(NC3(C)CCc4[nH]nc(C(C)C)c4C3)ncnc21` (single isomer, unassigned) [Compound 2-5, (S or R)-9-ethyl-N-[5-methyl-3-(1-methylethyl)-4,5,6,7-tetrahydro-1H-indazol-5-yl]-8-(2-methylpyrimidin-5-yl)-9H-purin-6-amine], the IC50 at PI3Kdelta is 4.1 nM. Moreover, on PI3Kalpha, the “Selectivity versus PI3Kalpha” value is recorded as over 10.
Regarding `CCn1c(-c2cnc(C)nc2)nc2c(NC3(C)CCc4[nH]nc(C(C)C)c4C3)ncnc21` (single isomer, unassigned) [Compound 2-6, (S or R)-9-ethyl-N-[5-methyl-3-(1-methylethyl)-4,5,6,7-tetrahydro-1H-indazol-5-yl]-8-(2-methylpyrimidin-5-yl)-9H-purin-6-amine], the IC50 at PI3Kdelta is 21 nM. At PI3Kalpha, the “Selectivity versus PI3Kalpha” value is on record as over 10.
As for `CCn1c(-c2ccc(C(F)(F)F)cc2)nc2c(NC3CCc4[nH]nc(C(C)C)c4C3)ncnc21` (single isomer, unassigned) [Compound 2-7, (S or R)-9-ethyl-N-[3-(1-methylethyl)-4,5,6,7-tetrahydro-1H-indazol-5-yl]-8-[4-(trifluoromethyl)phenyl]-9H-purin-6-amine], the IC50 at PI3Kdelta is 1.7 nM. Besides, the “Selectivity versus PI3Kalpha” value on PI3Kalpha was over 10.
For `CCn1c(-c2ccc(C(F)(F)F)cc2)nc2c(NC3CCc4[nH]nc(C(C)C)c4C3)ncnc21` (single isomer, unassigned) [Compound 2-8, (S or R)-9-ethyl-N-[3-(1-methylethyl)-4,5,6,7-tetrahydro-1H-indazol-5-yl]-8-[4-(trifluoromethyl)phenyl]-9H-purin-6-amine], the concentration for half-maximal inhibition (IC50) at PI3Kdelta is 210 nM. The “Selectivity versus PI3Kalpha” value at PI3Kalpha was over 10.
As to `CCCn1nc(C(C)C)c2c1CCC(Nc1ncnc3c1nc(-c1cnc(C)nc1)n3CC)C2` (single isomer, unassigned) [Compound 2-10, (S or R)-9-ethyl-N-[3-(1-methylethyl)-1-propyl-4,5,6,7-tetrahydro-1H-indazol-5-yl]-8-(2-methylpyrimidin-5-yl)-9H-purin-6-amine], the half-maximal inhibitory concentration (IC50) at PI3Kdelta worked out at 6.1 nM. The “Selectivity versus PI3Kalpha” value at PI3Kalpha was over 10.
Turning to `CCn1c(-c2cnc(C)nc2)nc2c(NC3CCc4c(c(C(C)C)nn4CCO)C3)ncnc21` (single isomer, unassigned) [Compound 2-11, (S or R)-2-[5-{[9-ethyl-8-(2-methylpyrimidin-5-yl)-9H-purin-6-yl]amino}-3-(1-methylethyl)-4,5,6,7-tetrahydro-1H-indazol-1-yl]ethanol], the half-inhibitory concentration (IC50) on PI3Kdelta stood at 2.1 nM. For the same compound, the “Selectivity versus PI3Kalpha” value on PI3Kalpha is over 10.
The like results for `CCn1c(-c2cnc(C)nc2)nc2c(NC3CCc4c(c(C(C)C)nn4C(=O)OC)C3)ncnc21` (single isomer, unassigned) [Compound 2-19, (S or R)-methyl 5-{[9-ethyl-8-(2-methylpyrimidin-5-yl)-9H-purin-6-yl]amino}-3-(1-methylethyl)-4,5,6,7-tetrahydro-1H-indazole-1-carboxylate] were, in that order, 1 nM and over 10.
Turning to `CCn1c(-c2cnc(C)nc2)nc2c(NC3CCc4nn(C)c(C(C)C)c4C3)ncnc21` (single isomer, unassigned) [Compound 2-24, (S or R)-9-ethyl-N-[(5S)-2-methyl-3-(1-methylethyl)-4,5,6,7-tetrahydro-2H-indazol-5-yl]-8-(2-methylpyrimidin-5-yl)-9H-purin-6-amine], the half-inhibitory concentration (IC50) on PI3Kdelta stood at 41 nM. Besides, the “Selectivity versus PI3Kalpha” value at PI3Kalpha is recorded as over 10.
Regarding `CCn1c(-c2cnc(C)nc2)nc2c(NC3CCc4c(c(C(C)C)nn4C)C3)ncnc21` (single isomer, unassigned) [Compound 2-25, (S or R)-9-ethyl-N-[(5S)-1-methyl-3-(1-methylethyl)-4,5,6,7-tetrahydro-1H-indazol-5-yl]-8-(2-methylpyrimidin-5-yl)-9H-purin-6-amine], the IC50 at PI3Kdelta stood at 14 nM. Besides, the “Selectivity versus PI3Kalpha” value on PI3Kalpha is on record as over 10.
In the same order, the values of `CCn1c(-c2cnc(C)nc2)nc2c(NC3CCc4cnc(C5CC5)n4C3)ncnc21` (single isomer, unassigned) [Compound 3-1, (S or R)-N-[3-cyclopropyl-5,6,7,8-tetrahydroimidazo[1,5-a]pyridin-6-yl]-9-ethyl-8-(2-methylpyrimidin-5-yl)-9H-purin-6-amine] are 11 nM and over 10.
On to `CCn1c(-c2cnc(C)nc2)nc2c(NC3CCc4cnc(C(C)C)n4C3)ncnc21` (single isomer, unassigned) [Compound 3-2, (S or R)-9-ethyl-N-[3-(1-methylethyl)-5,6,7,8-tetrahydroimidazo[1,5-a]pyridin-6-yl)-8-(2-methylpyrimidin-5-yl)-9H-purin-6-amine], for which, on PI3Kdelta, the half-maximal inhibitory concentration (IC50) worked out at 5.2 nM. On PI3Kalpha, the “Selectivity versus PI3Kalpha” value was over 10.
In the case of `CCn1c(-c2cnc(C)nc2)nc2c(NC3CCc4ncc(C5CC5)n4C3)ncnc21` (single isomer, unassigned) [Compound 4-1, (S or R)-N-(3-cyclopropyl 5,6,7,8-tetrahydroimidazo[1,2-a]pyridin-6-yl)-9-ethyl-8-(2-methylpyrimidin-5-yl)-9H-purin-6-amine], the IC50 at PI3Kdelta is 6.9 nM. The “Selectivity versus PI3Kalpha” value on PI3Kalpha is over 10.
For the compound `CCn1c(-c2cnc(C)nc2)nc2c(NC3CCc4ncc(C5CC5)n4C3)ncnc21` (single isomer, unassigned) [Compound 4-2, (S or R)-N-(3-cyclopropyl-5,6,7,8-tetrahydroimidazo[1,2-a]pyridin-6-yl)-9-ethyl-8-(2-methylpyrimidin-5-yl)-9H-purin-6-amine], the 50% inhibitory concentration (IC50) on PI3Kdelta worked out at 290 nM. The “Selectivity versus PI3Kalpha” value on PI3Kalpha is listed as over 10.
As to `CCn1c(-c2cnc(C)nc2)nc2c(NC3CCc4ncc(C(C)C)n4C3)ncnc21` (single isomer, unassigned) [Compound 4-3, (S or R)-9-ethyl-N-[3-(1-methylethyl)-5,6,7,8-tetrahydroimidazo[1,2-a]pyridin-6-yl]-8-(2-methylpyrimidin-5-yl)-9H-purin-6-amine], the 50% inhibitory concentration (IC50) on PI3Kdelta stood at 2.8 nM. The “Selectivity versus PI3Kalpha” value at PI3Kalpha was over 10.
Take `CCn1c(-c2cnc(C)nc2)nc2c(NC3CCc4ncc(C(C)C)n4C3)ncnc21` (single isomer, unassigned) [Compound 4-4, (S or R)-9-ethyl-N-[3-(1-methylethyl)-5,6,7,8-tetrahydroimidazo[1,2-a]pyridin-6-yl]-8-(2-methylpyrimidin-5-yl)-9H-purin-6-amine]: the concentration for half-maximal inhibition (IC50) at PI3Kdelta was 210 nM. Also, at PI3Kalpha, the “Selectivity versus PI3Kalpha” value is listed as over 10.
